Common to all, as to assay type: cell-based
The subject of experiment [1] is Trichophyton metagrophytes. Nature of the experiment: Fungistatic endpoint in inoculated culture medium, T. metagrophytes. To be noted: lowest concentration preventing visible growth, Bushnell-Haas medium with dextrose 10 g/L and yeast extract 0.1 g/L, pH 7.0; for MIC: Trichophyton, read-out: Fungistatic Endpoint (ppm Range) T. metagrophytes. The method, then: (§1) The microorganisms involved in these tests were Aspergillis niger, Candida albicans, Trichophyton metagrophytes, and Pichia pastoris. The various esters tested are listed in the following table together with their fungistatic endpoints.
(§2) Fungistatic endpoints were determined by combining the compounds at several dosage levels in a culture medium which had been freshly inoculated with spores of the test organisms. Five mL aliquots were placed in sterile culture tubes. The test compounds dissolved in the appropriate solvent were added to obtain the desired concentration of the compound in the culture medium. Following incubation at suitable conditions, the presence of growth was determined visually at each concentration of the biocide. The lowest concentration of the compound preventing growth was taken as the fungistatic endpoint. Controls containing the solvent alone at the highest dosage were made to insure that no microbial inhibition was produced by the solvent.
(§3) The culture media used in these tests was the Bushnell-Haas medium from Difco. Dextrose at 10 g/L and yeast extract at 0.1 g/L were added to obtain growth of the test organisms. The dilute solution of the Bushnell Haas media which was used in these tests contains: 0.20 g/L magnesium sulfate; 0.02 g/L calcium chloride; 1.00 g/L monopotassium phosphate; 1.00 g/L dipotassium phosphate; 1.00 g/L ammonium nitrate, and 0.05 g/L ferric chloride. The final pH of the media was 7.0±0.2 at 25° C.

The next experiment concerns Candida albicans. Put plainly: Fungistatic endpoint in inoculated culture medium, Candida albicans. To be noted: lowest concentration preventing visible growth, Bushnell-Haas medium with dextrose 10 g/L and yeast extract 0.1 g/L, pH 7.0; for MIC: Candida albicans, read-out: Fungistatic Endpoint (ppm Range) Candida albicans. On the procedure:
as §1, §2, §3

For a further experiment, the system named is Pichia pastoris. Put plainly: Fungistatic endpoint in inoculated culture medium, Pichia pastoris. To be noted: lowest concentration preventing visible growth, Bushnell-Haas medium with dextrose 10 g/L and yeast extract 0.1 g/L, pH 7.0; for MIC: Komagataella pastoris, read-out: Fungistatic Endpoint (ppm Range) Pichia. pastoris. The method, then: as §1, §2, §3

For another experiment, the system named is Aspergillis niger. Nature of the experiment: Fungistatic endpoint in inoculated culture medium, Aspergillis niger. As to conditions: lowest concentration preventing visible growth, Bushnell-Haas medium with dextrose 10 g/L and yeast extract 0.1 g/L, pH 7.0; for MIC: read-out: Fungistatic Endpoint (ppm Range) Aspergillis niger. On the procedure:
as §1, §2, §3

Converted amounts (≈) assume the structure as drawn. Some results are limits rather than exact numbers.

Turning to `CC(=O)OCC(C#N)c1cc(OC(F)F)ccc1Cl` (stereo not drawn) [Example 5, 3-acetoxy-2-(2-chloro-5-(difluoromethoxy)phenyl)propanenitrile], the MIC (in experiment [1]; in the experiment with Candida albicans) was under 16 µg/mL in each case.
Consider `CC(=O)OCC(C#N)c1cc(Cl)ccc1Cl` (stereo not drawn) [Example 6, 3-acetoxy-2-(2,5-dichlorophenyl)propanenitrile], for which the MIC (in experiment [1]; in the experiment with Candida albicans) was under 16 µg/mL throughout.
For `CC(=O)OCC(C#N)c1cc(Cl)ccc1OC(F)F` (stereo not drawn) [Example 7, 3-acetoxy-2-(5-chloro-2-(difluoromethoxy)phenyl)propanenitrile], the MIC (with Pichia pastoris; in experiment [1]; with Candida albicans) was 32 µg/mL (≈ 110 µM) throughout.
For the compound `CC(=O)OCC(C#N)c1ccc(Cl)cc1Cl` (stereo not drawn) [Example 8, 3-acetoxy-2-(2,4-dichlorophenyl)propanenitrile], the MIC in the experiment with Pichia pastoris was under 16 µg/mL; in experiment [1], 16 to 32 µg/mL (≈ 62 to 124 µM); in the experiment on Candida albicans it was 16 µg/mL (≈ 62 µM).
As to `CC(=O)OCC(C#N)c1ccccc1C(F)(F)F` (stereo not drawn) [Example 10, 3-acetoxy-2-(2-(trifluoromethyl)phenyl)propanenitrile], the MIC in the experiment with Pichia pastoris is over 64 µg/mL; in experiment [1] it was over 64 µg/mL; in the experiment with Aspergillis niger, 128 to 256 µg/mL (≈ 498 to 995 µM); with Candida albicans, over 64 µg/mL.
On to `CC(=O)OCC(C#N)c1ccc(Cl)cc1C` (stereo not drawn) [Example 12, 3-acetoxy-2-(4-chloro-2-methylphenyl)propanenitrile], for which the MIC was over 64 µg/mL with Pichia pastoris, over 64 µg/mL in experiment [1], 64 to 128 µg/mL (≈ 269 to 539 µM) in the experiment on Aspergillis niger and over 64 µg/mL in the experiment on Candida albicans.
Consider `CC(=O)OCC(C#N)c1ccccc1Cl` (stereo not drawn) [Example 14, 3-acetoxy-2-(2-chlorophenyl)propanenitrile], for which the MIC with Pichia pastoris came to 16 µg/mL (≈ 71.5 µM); in experiment [1], 32 µg/mL (≈ 143 µM); in the experiment on Candida albicans, 16 µg/mL (≈ 71.5 µM).
On to `CC(=O)OCC(C#N)c1ccc(Cl)cc1` (stereo not drawn) [Example 16, 3-acetoxy-2-(4chlorophenyl)propanenitrile], for which the MIC (with Pichia pastoris; in experiment [1]; with Candida albicans) was under 16 µg/mL throughout.
Take `CC(=O)OC(C)C(C#N)c1ccc(Cl)cc1` (stereo not drawn) [Example 19, 3-acetoxy-2-(4-chlorophenyl)butanenitrile]: the MIC in the experiment on Pichia pastoris is 16 µg/mL (≈ 67.3 µM); in experiment [1], 32 to 64 µg/mL (≈ 135 to 269 µM); in the experiment on Candida albicans it was 16 to 32 µg/mL (≈ 67.3 to 135 µM).
On to `COCC(OC(C)=O)C(C#N)c1ccc(Cl)cc1` (stereo not drawn) [Example 20, 3-acetoxy-2-(4-chlorophenyl)-4-methoxybutanenitrile], for which the MIC in the experiment on Aspergillis niger is 64 to 128 µg/mL (≈ 239 to 478 µM).
In the case of `CC(=O)OCC(C#N)c1ccc(C)cc1` (stereo not drawn) [Example 21, 3-acetoxy-2-(4-methylphenyl)propanenitrile], the MIC in the experiment with Aspergillis niger worked out at 64 µg/mL (≈ 315 µM).
The same measure, in the same setting: the result for `CC(=O)OC(C)C(C#N)c1ccc(C)cc1` (stereo not drawn) [Example 22, 3-acetoxy-2-(4-methylphenyl)butanenitrile] reads 128 to 256 µg/mL (≈ 589 to 1180 µM).
Take `COCC(OC(C)=O)C(C#N)c1ccc(C)cc1` (stereo not drawn) [Example 23, 3-acetoxy-2-(4-methylphenyl)-4methoxybutanenitride]: the “Fungistatic Endpoint (ppm Range) Aspergillis niger” value in the experiment with Aspergillis niger is reported as 128-256 ppm.
Turning to `COc1ccc(C(C#N)COC(C)=O)cc1` (stereo not drawn) [Example 24, 3-acetoxy-2-(4-methoxyphenyl)propanenitrile], in the experiment on Aspergillis niger, the MIC amounted to 128 µg/mL (≈ 584 µM).
For the compound `COc1ccc(C(C#N)C(C)OC(C)=O)cc1` (stereo not drawn) [Example 25, 3-acetoxy-2-(4-methoxyphenyl)butanentrile], the “Fungistatic Endpoint (ppm Range) Aspergillis niger” value in the experiment on Aspergillis niger is listed as 128-256 ppm.
As to `COCC(OC(C)=O)C(C#N)c1ccc(OC)cc1` (stereo not drawn) [Example 26, 3-acetoxy-2-(4-methoxyphenyl)-4-methoxybutanenitrile], the MIC with Aspergillis niger was 128 to 256 µg/mL (≈ 486 to 972 µM).
Same read-out and setting: for `CCOC(=O)C(OC(C)=O)C(C#N)c1ccc(Cl)cc1` (stereo not drawn) [Example 28, ethyl 2-acetoxy-3-(4-chlorophenyl)-3-cyanopropanoate] the value was 128 µg/mL (≈ 433 µM).
`N#CC(COC=O)c1cc(OC(F)F)ccc1Cl` (stereo not drawn) [Example 29, 2-(2-chloro-5-(difluoromethoxy)phenyl)-3-(formyloxy)propanenitrile]: the MIC (in experiment [1]; with Aspergillis niger; with Candida albicans) was under 16 µg/mL in each case.
As to `N#CC(COC=O)c1cc(Cl)ccc1Cl` (stereo not drawn) [Example 30, 2-(2,5-dichlorophenyl)-3-(formyloxy)propanenitrile], the MIC (in experiment [1]; in the experiment on Aspergillis niger; in the experiment with Candida albicans) was under 16 µg/mL in each case.
Turning to `N#CC(COC(=O)Cc1ccccc1)c1cc(OC(F)F)ccc1Cl` (stereo not drawn) [Example 31], the “Fungistatic Endpoint (ppm Range) Pichia. pastoris” value in the experiment with Pichia pastoris is given as 64 ppm. In addition, the “Fungistatic Endpoint (ppm Range) T. metagrophytes” value in experiment [1] is under 16 ppm. Moreover, the “Fungistatic Endpoint (ppm Range) Candida albicans” value with Candida albicans is over 64 ppm.
Consider `CC(=O)OCC(C#N)c1ccccc1` (stereo not drawn) [Example 32, 3-acetoxy-2-phenylpropanenitrile], for which the MIC in the experiment with Pichia pastoris is 16 to 32 µg/mL (≈ 84.6 to 169 µM); in experiment [1], 16 µg/mL (≈ 84.6 µM); in the experiment with Candida albicans it was over 64 µg/mL.
With `CC(=O)OCC(C#N)c1cccc(Oc2ccccc2)c1` (stereo not drawn) [Example 33], in the experiment on Aspergillis niger, the “Fungistatic Endpoint (ppm Range) Aspergillis niger” value is 128-256 ppm.

For the origin of these results see patent US20100022640A1, “ESTERS OF 2-[…] AND ANTIFUNGAL COMPOSITIONS CONTAINING THEM” (priority 2006, published 2010).
